7 compounds from PubChem BioAssay (NCI) can be followed below.

Structures are written as SMILES. Several values for one entry are separate records, joined by “and”; a condition that tells them apart may be missing. Identical values can stand only once.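 All cell lines were grown in 96-well plates and treated with compound for 48 hours. The concentration for 50% growth inhibition is given as GI50. TGI: concentration producing complete growth inhibition.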 Some results are limits rather than exact numbers.

Among the test systems are BT-549 breast; OVCAR-3 ovarian; COLO 205 colon; UACC-62 melanoma; SN12C renal; CAKI-1 renal; DU-145 prostate; OVCAR-8 ovarian; K-562 leukemia; HOP-62 NSCLC.
Common to all, as to assay: DTP human tumour cell line panel, 48 h

A word on the GI50: it is the concentration that inhibits growth by half. What is called TGI is the concentration at which net growth stops. For `Clc1nc(Cl)c2ncn(CCOCCn3cnc4c(Cl)nc(Cl)nc43)c2n1`, the GI50 with BT-549 breast was 0.208 µM; in the assay with OVCAR-3 ovarian, 0.199 µM; in the assay on COLO 205 colon, 0.204 µM; in the assay on UACC-62 melanoma, 0.198 µM; in the assay with SN12C renal it was 0.214 µM; in the assay with CAKI-1 renal, 0.197 µM. In addition, the GI50 with DU-145 prostate is 0.196 µM; in the assay on OVCAR-8 ovarian, 0.228 µM; in the assay with K-562 leukemia, 0.361 µM; in the assay on HOP-62 NSCLC it was 0.202 µM. Moreover, the concentration for total growth inhibition (TGI) in the assay with BT-549 breast is 0.392 µM; in the assay on OVCAR-3 ovarian, 0.346 µM; in the assay on COLO 205 colon, 0.374 µM; in the assay with UACC-62 melanoma, 0.412 µM; in the assay with SN12C renal it was 0.433 µM; with CAKI-1 renal, 0.453 µM. The TGI in the assay with DU-145 prostate was 0.343 µM; in the assay on OVCAR-8 ovarian it was 0.486 µM; with K-562 leukemia, over 100 µM; with HOP-62 NSCLC, 0.36 µM.
With `COCCOCCOCCOCCOC(=O)OC[n+]1ccc(NC(=NCCCCCCOc2ccc(Cl)cc2)NC#N)cc1`, the GI50 in the assay with BT-549 breast was 5.71 µM; in the assay on OVCAR-3 ovarian it was 4.69 µM; in the assay with COLO 205 colon it was 0.231 µM; in the assay on UACC-62 melanoma, 9.97 µM; in the assay with SN12C renal, under 0.01 µM; with CAKI-1 renal it was 3.3 µM. In addition, the GI50 is 0.0616 µM in the assay on DU-145 prostate, under 0.01 µM in the assay with OVCAR-8 ovarian, 4.58 µM in the assay on K-562 leukemia and 9.58 µM in the assay with HOP-62 NSCLC. Also, the concentration for total growth inhibition (TGI) worked out at 20.5 µM with BT-549 breast; 19.3 µM with OVCAR-3 ovarian; 15.5 µM in the assay on COLO 205 colon; 22.2 µM in the assay with UACC-62 melanoma; 15.7 µM in the assay with SN12C renal; 20.5 µM in the assay on CAKI-1 renal. For the same compound, the concentration for total growth inhibition (TGI) in the assay with DU-145 prostate was 18.2 µM; in the assay with OVCAR-8 ovarian, 20.8 µM; in the assay on K-562 leukemia, 20.5 µM; in the assay with HOP-62 NSCLC it was 24.1 µM.
On to `[Cl][Cu][Cl]`, for which the GI50 with BT-549 breast, in the assay on OVCAR-3 ovarian, in the assay with COLO 205 colon, in the assay with UACC-62 melanoma, in the assay with SN12C renal and with CAKI-1 renal was over 10 µM throughout. The GI50 in the assay with DU-145 prostate, in the assay with OVCAR-8 ovarian, in the assay with K-562 leukemia and in the assay with HOP-62 NSCLC was over 10 µM throughout. Moreover, the total growth inhibition concentration (TGI) in the assay on BT-549 breast, in the assay on OVCAR-3 ovarian, in the assay on COLO 205 colon, in the assay with UACC-62 melanoma, with SN12C renal and in the assay on CAKI-1 renal was over 10 µM throughout. The TGI in the assay with DU-145 prostate, in the assay with OVCAR-8 ovarian, in the assay with K-562 leukemia and in the assay on HOP-62 NSCLC was over 10 µM in each case.
For `COc1ccc(S(=O)(=O)N2CCNCC2)cc1OC`, the GI50 in the assay on BT-549 breast, with OVCAR-3 ovarian, in the assay on COLO 205 colon, in the assay on UACC-62 melanoma, in the assay with SN12C renal and with CAKI-1 renal was over 100 µM throughout. Also, the GI50 in the assay on DU-145 prostate, in the assay on OVCAR-8 ovarian, with K-562 leukemia and in the assay with HOP-62 NSCLC was over 100 µM throughout. Besides, the TGI in the assay on BT-549 breast, with OVCAR-3 ovarian, in the assay on COLO 205 colon, in the assay with UACC-62 melanoma, in the assay on SN12C renal and with CAKI-1 renal was over 100 µM throughout. The TGI with DU-145 prostate, with OVCAR-8 ovarian, in the assay with K-562 leukemia and in the assay on HOP-62 NSCLC was over 100 µM in each case.
In the case of `N#CCNC(=O)c1ccc(-c2ccnc(Nc3ccc(N4CCOCC4)cc3)n2)cc1`, the GI50 in the assay with BT-549 breast was 2.24 µM and 1.54 µM; with OVCAR-3 ovarian, 7.77 µM and 5.78 µM; with COLO 205 colon, 3.17 µM and 2.96 µM; in the assay with UACC-62 melanoma it was 4.44 µM and 3.66 µM; with SN12C renal, 2.73 µM and 0.992 µM; in the assay with CAKI-1 renal, 0.513 µM and 0.273 µM. The GI50 is 2.62 µM and 1.65 µM with DU-145 prostate; 4.26 µM and 3.16 µM with OVCAR-8 ovarian; 1.88 µM and 2.12 µM in the assay on HOP-62 NSCLC. Besides, the TGI in the assay with BT-549 breast was > 10 µM and 5.8 µM; with OVCAR-3 ovarian, > 10 µM and 46.6 µM; in the assay with COLO 205 colon, over 31.5 µM; in the assay with UACC-62 melanoma, over 57.8 µM; in the assay on SN12C renal, over 100 µM; in the assay on CAKI-1 renal, 3.72 µM and 3.03 µM. Moreover, the TGI in the assay with DU-145 prostate is over 100 µM; with OVCAR-8 ovarian, over 73.6 µM; in the assay with K-562 leukemia, over 100 µM; in the assay on HOP-62 NSCLC, > 10 µM and 16.4 µM.
For `C=CCN(CC=C)C(=O)[C@H](CC)[C@@H]1CC[C@@H](C)[C@@H]([C@H](C)[C@@H](O)[C@@H](C)C(=O)[C@H](CC)C2O[C@]3(C=C[C@@H](O)[C@]4(CC[C@@](C)([C@H]5CC[C@](O)(CC)[C@H](C)O5)O4)O3)[C@H](C)C[C@@H]2C)O1` (some centres undefined), the GI50 in the assay with BT-549 breast was 3.03 µM; in the assay with OVCAR-3 ovarian, 1.92 µM; in the assay on COLO 205 colon, 2.56 µM; in the assay on UACC-62 melanoma, 1.66 µM; in the assay on SN12C renal it was 2.2 µM; in the assay on CAKI-1 renal, 1.75 µM. Also, the GI50 is 2.46 µM with DU-145 prostate, 3.48 µM in the assay on OVCAR-8 ovarian, 2.64 µM in the assay with K-562 leukemia and 3.22 µM with HOP-62 NSCLC. Further, the TGI was 12.3 µM in the assay with BT-549 breast; 4.57 µM with OVCAR-3 ovarian; 6.23 µM in the assay on COLO 205 colon; 4.09 µM in the assay with UACC-62 melanoma; 6.42 µM in the assay with SN12C renal; 7.63 µM in the assay with CAKI-1 renal. The TGI in the assay with DU-145 prostate turned out to be 5.61 µM; in the assay on OVCAR-8 ovarian it was 76.4 µM; with K-562 leukemia it was 11 µM; in the assay on HOP-62 NSCLC, 12.2 µM.
Regarding `O=[N+]([O-])c1cc(Cc2cc([N+](=O)[O-])c3cccnc3c2O)c(O)c2ncccc12`, the TGI in the assay on BT-549 breast was over 77.7 µM; in the assay on OVCAR-3 ovarian, 6.71 µM; in the assay on COLO 205 colon, 56 µM; in the assay on UACC-62 melanoma it was 27.6 µM; in the assay with SN12C renal, over 65.3 µM; in the assay with CAKI-1 renal it was 41.3 µM. The total growth inhibition concentration (TGI) is 54 µM in the assay on DU-145 prostate, over 42.9 µM in the assay on OVCAR-8 ovarian, over 100 µM in the assay with K-562 leukemia and 42.4 µM with HOP-62 NSCLC.
